In patent US7728002B2, “Use of pyrrolopyridine compounds for activating PPAR receptors and treatment of conditions involving such receptors” (Laboratoires Fournier S.A., priority 2005, dated 2010):

Tests used:
db/db mice = db/db mice model: serum glucose, triglycerides, cholesterol; assay type: in vivo; conditions: serum 4 hours after final gavage
Procedure: The test protocol is as follows:
Homozygous male C57BL/Ks-db mice (db/db mice), 11-13 weeks old at the start of the studies, are divided into groups of 9-10 animals. The products are administered orally, once a day for 5 days. A group of mice receives the vehicle alone (methylcellulose solution at 0.5% or 1%). A blood sample is taken from the retro-orbital sinus before treatment and 4 hours after the final gavage. After centrifugation, the serum is collected and the levels of cholesterol, triglycerides and glucose are measured using a multiparameter analyzer with commercial products. The results are expressed as a percentage of variation on the final day relative to the control group.

[1] = tested on: cells of murine muscle origin C2C12; test: β-oxidation of 14C-oleate on C2C12 cells differentiated as myotubes; assay type: cell-based; conditions: 10 μM, 48 hours incubation
Procedure: A second series of tests was performed with the compounds according to the invention, with the aim of confirming the activity deduced from their affinity for the receptors mentioned previously. This test consists in measuring the β-oxidation on cells of human hepatic origin HuH7 and cells of murine muscle origin C2C12 after differentiation as myotubes. The cells are inoculated in Petri dishes comprising a central well. The products are added to the culture medium and incubated for 48 hours at different concentrations. After incubation for 22 hours, ^14C-radiolabeled oleate (oleate 1-C14) is added to the culture medium. The β-oxidation reaction is stopped two hours later by adding 40% perchloric acid. The CO2 released during the oxidation of the oleate is trapped with KOH solution and then counted. Each test is performed three times. The results are expressed as a percentage of variation relative to the control dishes (dishes without compounds). According to this test, the compounds according to the invention increase the β-oxidation by up to +145% at a concentration of 10 μM on HuH7 cells.

[2] = 10 mg/kg orally once a day for 5 days
[3] = 100 mg/kg orally once a day for 5 days
[4] = 3 mg/kg orally once a day for 5 days

Row | SMILES | Cholesterol, percentage of variation relative to the control group (db/db mice; [2]) | Glucose, percentage of variation relative to the control group (db/db mice; [2]) [%] | Triglycerides, percentage of variation relative to the control group (db/db mice; [2]) [%] | further results
1 | Cc1cc(C)cc(S(=O)(=O)n2c(CCCCC(=O)O)cc3nc(Cl)ccc32)c1 [Ex. 259, 5-Chloro-1-[(3,5-dimethylphenyl)sulfonyl]-1H-pyrrolo[3,2-b]pyridine-2-pentanoic acid] | +32% | −51 | −16 | –
2 | O=C(O)CCCc1cc2nc(Cl)ccc2n1S(=O)(=O)c1ccc(-c2ccncc2)cc1 [Ex. 293, 5-Chloro-1-[[4-(4-pyridyl)phenyl]sulfonyl]-1H-pyrrolo[3,2-b]pyridine-2-butanoic acid] | +16% | −24 | −15 | –
3 | O=C(O)CCc1cc2nc(Cl)ccc2n1S(=O)(=O)c1ccccc1 [Example 2, 5-Chloro-1-(phenylsulfonyl)-1H-pyrrolo[3,2-b]pyridine-2-propanoic acid] | +41% | −36 | −32 | –
4 | O=C(O)CCCc1cc2nc(Cl)ccc2n1S(=O)(=O)c1ccc2ncsc2c1 [Example 4, 1-(6-Benzothiazolylsulfonyl)-5-chloro-1H-pyrrolo[3,2-b]pyridine-2-butanoic acid] | +4% | −57 | −45 | –
5 | O=C(O)CCCc1cc2nc(Cl)ccc2n1S(=O)(=O)c1ccccc1 [Example 10, 5-Chloro-1-(phenylsulfonyl)-1H-pyrrolo[3,2-b]pyridine-2-butanoic acid] | – | – | – | increase of β-oxidation, percentage of variation relative to control dishes [1]: 70%
6 | O=C(O)CCCc1cc2nc(C(F)(F)F)ccc2n1S(=O)(=O)c1ccccc1 [Example 20, 1-(Phenylsulfonyl)-5-(trifluoromethyl)-1H-pyrrolo[3,2-b]pyridine-2-butanoic acid] | +13% | −72 | −65 | –
7 | CC(C)OC(=O)C(C)(C)Oc1ccc(C(=O)c2ccc(Cl)cc2)cc1 [Fenofibrate, fenofibrate, reference compound] | – | – | – | Cholesterol, percentage of variation relative to the control group (db/db mice; [3]): +32%; Glucose, percentage of variation relative to the control group (db/db mice; [3]): −9%; Triglycerides, percentage of variation relative to the control group (db/db mice; [3]): −7%
8 | CN(CCOc1ccc(CC2SC(=O)NC2=O)cc1)c1ccccn1 (stereo not shown) [Rosiglitazone, rosiglitazone, reference compound] | – | – | – | Cholesterol, percentage of variation relative to the control group (db/db mice; [4]): −30%; Glucose, percentage of variation relative to the control group (db/db mice; [4]): −41%; Triglycerides, percentage of variation relative to the control group (db/db mice; [4]): −52%
